Among the data in PMC6273789, “Asperpyrone-Type Bis-Naphtho-γ-Pyrones with COX-2–Inhibitory Activities from Marine-Derived Fungus Aspergillus niger” (Molecules, 2016) are IC50 values, retold here.

The experiment deals with T1, COX-2 (Ovis aries, UniProt P79208).
T1 construct: gene PTGS2
T1 sequence (P79208 17-603): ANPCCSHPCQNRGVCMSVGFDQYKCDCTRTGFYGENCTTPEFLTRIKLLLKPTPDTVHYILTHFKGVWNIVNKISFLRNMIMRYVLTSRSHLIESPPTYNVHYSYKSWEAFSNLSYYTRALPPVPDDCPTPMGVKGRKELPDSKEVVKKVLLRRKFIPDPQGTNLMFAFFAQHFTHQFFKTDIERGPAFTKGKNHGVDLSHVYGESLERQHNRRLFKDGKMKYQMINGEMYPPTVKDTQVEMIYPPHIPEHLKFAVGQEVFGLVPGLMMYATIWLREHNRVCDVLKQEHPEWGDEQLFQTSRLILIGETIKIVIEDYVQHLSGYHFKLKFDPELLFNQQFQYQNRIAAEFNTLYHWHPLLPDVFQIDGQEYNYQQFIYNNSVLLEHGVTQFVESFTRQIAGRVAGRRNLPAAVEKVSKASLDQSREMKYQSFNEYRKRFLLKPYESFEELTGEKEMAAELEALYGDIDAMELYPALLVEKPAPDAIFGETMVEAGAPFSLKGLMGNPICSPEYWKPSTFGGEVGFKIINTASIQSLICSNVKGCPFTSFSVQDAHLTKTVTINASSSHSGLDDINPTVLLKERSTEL
The experiment in a line: COX (ovine) inhibitor screening kit. It counts as biochemical.
Turning to `COc1cc(OC)c2c(O)c3c(=O)cc(C)oc3c(-c3c(O)cc4cc5c(c(O)c4c3OC)C(=O)CC(C)(O)O5)c2c1` (stereo not drawn) [compound 3, aurasperone F], the IC50 was 11.1 µM.

`COc1cc(OC)c2c(O)c3c(=O)cc(C)oc3c(-c3c(O)cc4cc(O)c5c(=O)cc(C)oc5c4c3OC)c2c1` [compound 8, asperpyrone A]: the IC50 was 6.4 µM.

As to `COc1cc(OC)c2c(O)c3c(c(-c4c(O)cc5cc6c(c(O)c5c4OC)C(=O)CC(C)(O)O6)c2c1)OC(C)(O)CC3=O` (stereo not drawn) [compound 6, aurasperone C], half-maximal inhibition (IC50) was put at 4.2 µM.

A word on the IC50: it is the midpoint of a concentration-inhibition curve.
